# Measurements as given in ChEMBL document CHEMBL3352643, “Synthesis and antiproliferative activity of 6-phenylaminopurines” (Eur J Med Chem, 2014).
# Tests used:
# Assay type in all cases: functional
# L1210 = assay: Antiproliferative activity against mouse L1210 assessed as inhibition of cell proliferation after 48 hrs by Coulter counter based cell counting method; conditions: L1210, 48 h
# HeLa [1] = assay: Induction of cell cycle arrest in human HeLa cells assessed as accumulation at G1 phase at 100 uM after 24 hrs by propidium iodide staining based flow cytometry (reference value: 45%)
# HeLa [2] = assay: Induction of cell cycle arrest in human HeLa cells assessed as accumulation at subG1 phase at 20 uM after 24 hrs by propidium iodide staining based flow cytometry (reference value: 1%)
# HeLa [3] = assay: Induction of cell cycle arrest in human HeLa cells assessed as accumulation at S phase at 100 uM after 24 hrs by propidium iodide staining based flow cytometry (reference value: 24%)
# [4] = Antiproliferative activity against human HMEC1 cells assessed as inhibition of cell proliferation after 4 days by Coulter counter based cell counting method; conditions: HMEC-1, 96 h
# HeLa [5] = assay: Induction of cell cycle arrest in human HeLa cells assessed as accumulation at G1 phase at 20 uM after 24 hrs by propidium iodide staining based flow cytometry (reference value: 45%)
# HeLa [6] = assay: Induction of cell cycle arrest in human HeLa cells assessed as accumulation at subG1 phase at 100 uM after 24 hrs by propidium iodide staining based flow cytometry (reference value: 1%)
# [7] = Antiproliferative activity against mouse MBEC assessed as inhibition of cell proliferation after 3 days by Coulter counter based cell counting method; conditions: 72 h
# HeLa [8] = assay: Induction of cell cycle arrest in human HeLa cells assessed as accumulation at G2/M phase at 20 uM after 24 hrs by propidium iodide staining based flow cytometry (reference value: 31%)
# [9] = Antiproliferative activity against BAEC assessed as inhibition of cell proliferation after 3 days by Coulter counter based cell counting method; conditions: Bos taurus, 72 h
# HeLa [10] = assay: Induction of cell cycle arrest in human HeLa cells assessed as accumulation at G2/M phase at 100 uM after 24 hrs by propidium iodide staining based flow cytometry (reference value: 31%)
# HeLa [11] = assay: Antiproliferative activity against human HeLa cells assessed as inhibition of cell proliferation after 4 days by Coulter counter based cell counting method; conditions: 96 h
# CCRF-CEM = assay: Antiproliferative activity against human CEM cells assessed as inhibition of cell proliferation after 96 hrs by Coulter counter based cell counting method
# HeLa [12] = assay: Induction of cell cycle arrest in human HeLa cells assessed as accumulation at S phase at 20 uM after 24 hrs by propidium iodide staining based flow cytometry (reference value: 24%)
# HeLa [13] = assay: Induction of cell cycle arrest in human HeLa cells assessed as accumulation at G2/M phase at 4 uM after 24 hrs by propidium iodide staining based flow cytometry (reference value: 31%)
# HeLa [14] = assay: Induction of cell cycle arrest in human HeLa cells assessed as accumulation at subG1 phase at 4 uM after 24 hrs by propidium iodide staining based flow cytometry (reference value: 1%)
# HeLa [15] = assay: Induction of cell cycle arrest in human HeLa cells assessed as accumulation at G1 phase at 4 uM after 24 hrs by propidium iodide staining based flow cytometry (reference value: 45%)
# HeLa [16] = assay: Induction of cell cycle arrest in human HeLa cells assessed as accumulation at S phase at 4 uM after 24 hrs by propidium iodide staining based flow cytometry (reference value: 24%)
# HeLa [17] = assay: Induction of cell cycle arrest in human HeLa cells assessed as accumulation at subG1 phase at 0.1 uM after 24 hrs by propidium iodide staining based flow cytometry (reference value: 1%)
# HeLa [18] = assay: Induction of cell cycle arrest in human HeLa cells assessed as accumulation at G1 phase at 0.1 uM after 24 hrs by propidium iodide staining based flow cytometry (reference value: 45%)
# HeLa [19] = assay: Induction of cell cycle arrest in human HeLa cells assessed as accumulation at G2/M phase at 0.1 uM after 24 hrs by propidium iodide staining based flow cytometry (reference value: 31%)
# HeLa [20] = assay: Induction of cell cycle arrest in human HeLa cells assessed as accumulation at S phase at 0.1 uM after 24 hrs by propidium iodide staining based flow cytometry (reference value: 24%)
Compound,IC50 (L1210; read-out: IC50),Activity (HeLa [1]),Activity (HeLa [2]),Activity (HeLa [3]),IC50 [4],Activity (HeLa [5]),Activity (HeLa [6]),IC50 [7],Activity (HeLa [8]),IC50 [9],Activity (HeLa [10]),IC50 (HeLa [11]),IC50 (CCRF-CEM),Activity (HeLa [12]),further results
COc1ccc(N(C)c2nc(C)nc3c2nc(C)n3C)cc1,19 µM,8%,39%,15%,7.3 µM,18%,14%,8.7 µM,25%,7.4 µM,63%,4.5 µM,6.2 µM,29%,
COc1ccc(Nc2nc(C)nc3c2nc(C)n3C)cc1,≥ 250 µM,,,,≥ 100 µM,,,≥ 100 µM,,≥ 100 µM,,197 µM,> 250 µM,,
COc1cccc(N(C)c2nc(C)nc3c2nc(C)n3C)c1,> 250 µM,,,,≥ 100 µM,,,≥ 100 µM,,≥ 100 µM,,> 250 µM,> 250 µM,,
Cc1ccc(N(C)c2nc(C)nc3c2nc(C)n3C)cc1,≥ 250 µM,,,,> 100 µM,,,> 100 µM,,> 100 µM,,≥ 250 µM,164 µM,,
Cc1nc(N(C)c2ccc(OC(F)(F)F)cc2)c2nc(C)n(C)c2n1,> 250 µM,,,,> 100 µM,,,> 100 µM,,> 100 µM,,188 µM,132 µM,,
COc1ccc(N(C)c2ncnc3c2nc(C)n3C)cc1,> 250 µM,,,,≥ 100 µM,,,≥ 100 µM,,≥ 100 µM,,> 250 µM,> 250 µM,,
COc1ccc(N(C)c2nc(C)nc3c2ncn3C)cc1,30 µM,,,,9.2 µM,,,15 µM,,9.3 µM,,22 µM,21 µM,,
COc1ccc(N(C)c2nc(C)nc3[nH]c(C)nc23)cc1,229 µM,6%,5%,15%,7.1 µM,39%,11%,8.9 µM,31%,8.9 µM,68%,14 µM,23 µM,27%,
CCN(c1ccc(OC)cc1)c1nc(C)nc2c1nc(C)n2C,35 µM,12%,6%,18%,8.8 µM,39%,36%,15 µM,28%,11 µM,34%,20 µM,16 µM,27%,
COc1ccc2c(c1)CCCN2c1nc(C)nc2c1nc(C)n2C,5.1 µM,3%,7%,8%,2.3 µM,3%,8%,4.4 µM,80%,2.4 µM,79%,4.4 µM,3.5 µM,8%,Activity (HeLa [13]): 27%; Activity (HeLa [14]): 20%; Activity (HeLa [15]): 35%; Activity (HeLa [16]): 18%
COc1cc2c(c(OC)c1OC)-c1ccc(OC)c(=O)cc1[C@@H](NC(C)=O)CC2 [COLCHICINE],,,,,,,,0.031 µM,,0.0069 µM,,,0.031 µM,,IC50 (L1210): 0.014 µM; Activity (HeLa [17]): 6%; Activity (HeLa [18]): 5%; Activity (HeLa [19]): 80%; Activity (HeLa [20]): 10%
